Changes are numbered by the printed parent chain. In brackets after ≈: the same amount, converted by molar mass.
What was measured:
[1] = Cytotoxic activity against human HL60 cells; assay type: functional, cell-based; conditions: HL-60
Candida albicans = assay: Antifungal activity against Candida albicans after 24 hrs by microtiter method; assay type: functional
[2] = Half life in Beagle dog at 2.5 mg/kg, iv; assay type: ADME, organism-based, Canis lupus familiaris; conditions: in vivo
[3] = Oral bioavailability in Beagle dog at 5 mg/kg; assay type: ADME, organism-based, Canis lupus familiaris; conditions: in vivo
[4] = Half life in Beagle dog at 5 mg/kg, po; assay type: ADME, organism-based, Canis lupus familiaris; conditions: in vivo
Dihydrofolate reductase [5] = molecular target: T1, Dihydrofolate reductase (Homo sapiens, UniProt P00374); assay: Competitive inhibition of human recombinant DHFR preincubated for 2 mins followed by substrate addition in presence of dihydrofolate
T1 sequence (P00374 whole entry): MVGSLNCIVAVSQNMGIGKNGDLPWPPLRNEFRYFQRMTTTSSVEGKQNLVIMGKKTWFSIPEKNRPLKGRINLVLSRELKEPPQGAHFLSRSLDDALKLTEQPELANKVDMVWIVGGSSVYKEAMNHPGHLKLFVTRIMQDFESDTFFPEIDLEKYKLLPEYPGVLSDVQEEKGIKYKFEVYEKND

[6] = Tmax in Beagle dog at 5 mg/kg, po; assay type: ADME, organism-based, Canis lupus familiaris; conditions: in vivo
[7] = Cmax in Beagle dog at 5 mg/kg, po after 1.8 hrs; assay type: ADME, organism-based, Canis lupus familiaris; design: dose 5 mg/kg, route oral; conditions: in vivo
[8] = Volume of distribution in Beagle dog at 2.5 mg/kg, iv; assay type: ADME, organism-based, Canis lupus familiaris; conditions: in vivo
[9] = Cytotoxicity against human HCT8 cells assessed as growth inhibition by MTT assay; assay type: functional; conditions: HCT-8
Human alphaherpesvirus 1 = assay: Antiviral activity against HSV1 after 1.5 hrs by microtiter plate reader analysis; conditions: Human alphaherpesvirus 1, 1.5 h
Plasmodium falciparum [10] = assay: Antimalarial activity against Plasmodium falciparum TM91C235 assessed as [3H]hypoxantine incorporation preincubated for 48 hrs followed by [3H]hypoxantine addition measured after 18 hrs by scintillation counting analysis; assay type: functional, organism-based
Plasmodium falciparum [11] = assay: Antimalarial activity against Plasmodium falciparum D6 assessed as [3H]hypoxantine incorporation preincubated for 48 hrs followed by [3H]hypoxantine addition measured after 18 hrs by scintillation counting analysis; assay type: functional, organism-based
Plasmodium falciparum [12] = assay: Antimalarial activity against Plasmodium falciparum RCS assessed as [3H]hypoxantine incorporation preincubated for 48 hrs followed by [3H]hypoxantine addition measured after 18 hrs by scintillation counting analysis; assay type: functional, organism-based
Plasmodium falciparum [13] = assay: Antimalarial activity against Plasmodium falciparum W-2 assessed as [3H]hypoxantine incorporation preincubated for 48 hrs followed by [3H]hypoxantine addition measured after 18 hrs by scintillation counting analysis; assay type: functional, organism-based
[14] = Therapeutic index, ratio of MTD for Sprague-Dawley rat to MCD for Plasmodium berghei infected in Sprague-Dawley rat; conditions: read-out: TI
Dihydrofolate reductase [15] = molecular target: T2, Dihydrofolate reductase (Mus musculus, UniProt P00375); assay: Inhibition of DHFR in mouse L1210 cells using dihydrofolate as substrate preincubated for 5 mins followed by substrate addition by spectrofluorometric analysis; assay type: cell-based
T2 sequence (P00375 whole entry): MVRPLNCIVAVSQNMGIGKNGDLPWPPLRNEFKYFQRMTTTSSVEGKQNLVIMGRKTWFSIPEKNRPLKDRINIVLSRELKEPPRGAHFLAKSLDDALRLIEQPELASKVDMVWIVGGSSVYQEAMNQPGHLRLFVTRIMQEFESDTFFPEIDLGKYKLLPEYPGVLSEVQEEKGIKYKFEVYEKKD

[16] = Inhibition of DHFR in Crithidia oncopelti using dihydrofolate as substrate preincubated for 5 mins followed by substrate addition by spectrofluorometric analysis
Dihydrofolate reductase [17] = molecular target: T3, Dihydrofolate reductase (Rattus norvegicus, UniProt Q920D2); assay: Inhibition of rat DHFR extracted from liver using dihydrofolate as substrate preincubated for 5 mins followed by substrate addition by spectrofluorometric analysis
T3 sequence (Q920D2 whole entry): T2 sequence (P00375 whole entry) with P27L, R85Q, R99K, I115V, G155E, V170I

Dihydrofolate reductase [18] = molecular target: Dihydrofolate reductase (Lactobacillus casei, UniProt P00381); assay: Inhibition of DHFR in Lactobacillus casei using dihydrofolate as substrate preincubated for 5 mins followed by substrate addition by spectrofluorometric analysis; design: species or system Lacticaseibacillus casei
L1210 = assay: Cytotoxicity against mouse L1210 cells assessed as growth inhibition after 48 hrs by MTT assay; assay type: functional, cell-based; conditions: L1210, 48 h
Candida = assay: Antifungal activity against Candida clinical isolates after 24 hrs by microtiter method; assay type: functional

Q: With `CCn1c2ccccc2c2c3c(=O)[nH]c(NCCN(C)C)nc3ccc21` as the compound, how does the IC50 [1] read?
A: 17000 nM

Q: What does the source list for `CCC(CC)n1c(C)cc2c3c(N)nc(N)nc3ccc21`?
A: MIC (Candida albicans): 0.025 µg/mL (≈ 0.0882 µM); half-life [2]: 2.8 h; bioavailability [3]: 49%; half-life [4]: 4 h; Ki (Dihydrofolate reductase [5]): 0.0003 nM; Tmax [6]: 1.8 h; Cmax [7]: 170 ng/mL; Vd [8]: 9.3 L/g; GI50 [9]: 0.74 nM

Q: For `Nc1nc(N)c2c(ccc3[nH]ccc32)n1`, which Ki (Dihydrofolate reductase [5]) is on record?
A: 1 nM

Q: With `Cc1cc2c(ccc3nc(N)nc(N)c32)[nH]1` as the compound, how does the IC50 (Human alphaherpesvirus 1) read?
A: 15000 nM

Q: What does the source list for `CC(=O)N(C(C)=O)c1nc(N(C(C)=O)C(C)=O)c2c(ccc3c2ccn3Cc2ccccc2C(F)(F)F)n1`?
A: IC50 (Plasmodium falciparum [10]): 0.16 nM; IC50 (Plasmodium falciparum [11]): 0.046 nM; IC50 (Plasmodium falciparum [12]): 0.046 nM; IC50 (Plasmodium falciparum [13]): 0.14 nM; selectivity ratio [14]: 80

Q: For `N#Cc1ccc(Cn2ccc3c4c(N)nc(N)nc4ccc32)cc1`, which IC50 (Dihydrofolate reductase [15]) is on record?
A: 4 nM

Q: What about the IC50 [16] of the same compound?
A: 0.7 nM

Q: What about the IC50 (Dihydrofolate reductase [17]) of the same compound?
A: 2.1 nM

Q: What about the IC50 (Dihydrofolate reductase [18]) of the same compound?
A: 6.4 nM

Q: What about the IC50 (L1210) of the same compound?
A: 40 nM

Q: Which MIC (Candida albicans) does the source give for `Nc1nc(N)c2c(ccc3c2ccn3CC2CC2)n1` here?
A: 1.39 µg/mL (≈ 5.49 µM)

Q: And the MIC (Candida)?
A: 1.39 µg/mL (≈ 5.49 µM)

Q: What does the source list for `Nc1nc(N)c2c(ccc3c2ccn3Cc2ccccc2)n1`?
A: MIC (Candida albicans): 0.64 µg/mL (≈ 2.21 µM); MIC (Candida): 0.64 µg/mL (≈ 2.21 µM)

— ChEMBL document CHEMBL3734661, “The chemistry and pharmacology of privileged pyrroloquinazolines” (Medchemcomm, 2015)
